Measured values taken from patent US20260183302A1, “PDK1 REGULATORY COMPOUND AND COMPOSITION CONTAINING THE SAME” (PROVIBIO CO., LTD., priority 2024, published 2026).

Experiments:
[1] = system: Human multiple myeloma, KMS26; experiment: Relative cell viability, KMS26 (CCK-8); format: cell-based; details: KMS26, 1 μM
Protocol: After that, 10 μL of CCK-8 was added to each well, and the plate was incubated again at 37° C. in a 5% CO2 incubator for 2 hours.
In other words, when the survival rate of untreated cells (DMSO) is set at 100%, the relative cell survival rate in each group treated with the drug at different concentrations is indicated.

[2] = system: skin graft (BALB/c donor to C57BL/6 recipient); experiment: In vivo skin graft immune suppression model; parameters: species or system C57BL/6 mice; details: 0.15 mg/kg twice daily
Protocol: To evaluate the immune-suppressive effects of the compounds according to the present invention, a skin graft animal model was established, and the efficacy of the compounds was analyzed in the model.
First, female BALB/c mice aged 7 weeks and weighing approximately 20 g were used as donor animals, and female C57BL/6 mice of the same age and weight were used as recipient animals. All experimental animals were supplied by HanabioTech Co., Ltd.
Prior to the experiment, the animals were acclimatized in SPF-certified facilities for one week and then used in the experiment. The housing conditions were maintained at a temperature of 22±2° C., relative humidity of 55+10%, and a 12-hour light-dark cycle.
To establish the skin graft model, a anesthetic solution consisting of ketamine, […], and PBS in a volume ratio of 1:1:3 was administered intraperitoneally to C57BL/6 mice to induce anesthesia.
The hair on the dorsal side of the anesthetized mice was removed and disinfected, followed by excision of the full-thickness skin using an 8 mm punch. Subsequently, skin of the same size was harvested from donor mice (BALB/c) and transplanted. […]
Subsequently, the proportions of CD3- and B220-positive cells were analyzed using a flow cytometer.

[3] = system: MRL/lpr mice; experiment: Systemic lupus erythematosus animal model (MRL/lpr); format: in vivo, MRL/MpJ-Faslpr/J mice
From the text: The MRL/MpJ-Faslpr/J (hereinafter referred to as “MRL/lpr”) used in this experiment is one of the representative animal models for systemic lupus erythematosus (SLE), known to produce various autoantibodies, including antinuclear antibodies, due to the lpr (lymphoproliferation) gene.
In this invention, the period up to 9 weeks of age was considered the pre-disease stage, and the period after 23 weeks of age was considered the post-disease stage, and efficacy verification experiments using this model were conducted.
Subsequently, female and male MRL/lpr mice were mated at a ratio of 2:1 in the same facility, and the female offspring were administered the compound GO15F of the present invention or vehicle at a dose of 30 mg/kg once daily via intraperitoneal injection or oral administration from the age of 10 weeks until 23 weeks of age.
Urine samples were collected once a week from each individual and used for analytical experiments.
At 23 weeks of age, necropsy was performed on each MRL/lpr mouse, and serum, kidneys, and spleens were isolated and used for analytical experiments. […]
The concentration of anti-nuclear antibodies (Anti-dsDNA Ab) was measured using the ‘Mouse Anti-dsDNA IgG ELISA Kit (Alpha Diagnostic International, Cat. #5120)’ on serum isolated at the time of necropsy in the lupus animal model.
Each mouse serum was diluted to a final concentration of 1/5000 with Working Sample Diluent (WSD) and Low NSB Sample Diluent (LNSD), followed by adding 100 μl of the diluted serum to wells coated with anti-dsDNA and incubating at room temperature for 60 minutes.
The serum separated at the time of necropsy of the lupus animal model was analyzed using the ‘IgG (Total) Mouse Uncoated ELISA Kit (Invitrogen, Cat. #88-50400)’ to measure the concentration of total IgG.
To investigate the effect of GO15F administration on changes in the ratio of immune cells in the spleen of a lupus animal model, the spleens of mice administered each compound were excised, cells were extracted, and the cells were suspended in MACS buffer (autoMACS Washing Solution, Miltenyi Biotec., Cat. #130-092-987).
For flow cytometry analysis, FACS tubes (5 mL round tubes, Falcon, Cat. #352052) were used. To prevent non-specific binding of antibodies, 1 μg/mL of anti-mouse CD16/CD32 (In VivoPlus anti-mouse CD16/CD32, BioXCell, Cat. #BP0307) for 30 minutes to prevent non-specific binding of the antibody, then centrifuge at 1,500 rpm for 5 minutes and resuspend in 100 μL of MACS buffer.
For B cells, each FACS tube was stained with 1 μg/mL of FITC-conjugated anti-B220 antibody (eBioscience™, Cat. #11-0452-81) at 4° C. for 30 minutes, then washed with 2 mL of MACS buffer.
For T cells, each FACS tube was stained with 1 μg/mL PerCP-Cy5.5-conjugated anti-CD3 (Biolegend, Cat. #100218) at 4° C. for 30 minutes.
For macrophages, each FACS tube was stained with 1 μg/mL of PE-conjugated anti-CD11b antibody (Biolegend, Cat. #101207) and PerCP-Cy5.5-conjugated anti-F4/80 (Biolegend, Cat. #123128) and incubated at 4° C. for 30 minutes. The tubes were then washed with 2 mL of MACS buffer. […]
The synthesized cDNA from each mouse was quantified to a concentration of 50 ng using a micro-quantitative spectrophotometer, and qPCR was performed for the cytokines ‘IL-2, IL-6, IL-10, IL-17, TNF-α, IFN-γ’ using a SYBR green probe (CFX96, BIO-RAD).
To investigate the effects of drug administration on renal tissue in MRL/lpr mice, the tissue was fixed in 10% neutral buffered formalin at room temperature, followed by stepwise ethanol penetration for dehydration. The tissue was then embedded in xylene and paraffin.
The blocked tissues were sectioned into 4 μm thick slices using a microtome, followed by deparaffinization, hydration, and staining.
Hematoxylin & Eosin staining, PAS staining, and Masson trichrome staining were performed for pathological evaluation of the tissues. […]

[4] = serum at necropsy, ELISA, vs control group

12-[4-(2,2-dimethylmorpholin-4-yl)]dodecyl-N-(6-aminopurine-2-yl) carboxamide [Compound 11]
Relative cell viability (%) [1]: 31.19%

Nc1ncccc1C(=O)NCCCCCCCCCCCCN1CCNCC1 [Compound 14, 2-Amino-N-(12-(piperazin-1-yl)dodecyl)nicotinamide]
animals with graft pinkening and good blood flow ([2]; day 10 post-transplantation): three out of five
animals with graft pinkening and good blood flow ([2]; day 15 post-transplantation): one out of five

Nc1ncccc1C(=O)NCCCCCCCCCCCCF [Compound 57, 2-Amino-N-(12-fluoro-dodecyl)-nicotinamide]
protein concentration in urine ([3]; 30 mg/kg once daily, vs control group): significantly lower
renal pathological tissue staining (glomeruli) ([3]; H&E, PAS, Masson trichrome): glomerular capillary loops were well maintained
immune cells in the spleen (B cells, T cells, macrophages) ([3]; flow cytometry (B220, CD3, CD11b/F4/80)): reduced the increased B cells, T cells, and macrophages
IgG deposition in kidney tissue ([3]; immunofluorescence staining, vs control group): significantly lower
concentration of anti-dsDNA IgG in the blood [3, 4]: significantly lower
total IgG concentration in the blood [3, 4]: significantly lower
